# Target: T1, KCNQ 2/3 channels (HEK293 cells stably expressing human KCNQ2 and KCNQ3 subunits) (Homo sapiens, UniProt O43525+O43526)
# T1 construct: expressed in transfected cells; host or cells: HEK293
# Assay: KCNQ2/3 channel activation, thallium flux FLIPR assay with BTC-AM dye
# Type: cell-based
# Conditions: for Emax: HEK293, read-out: Max. %; for EC50: HEK293 cells expressing human KCNQ2 and KCNQ3, thallium flux, FLIPR
# Protocol: The following example describes the assay that can be used to identify compounds that activate KCNQ 2/3 channels.
# HEK293 cells stably expressing human KCNQ2 and KCNQ3 subunits were seeded in 96-well, black-walled, clear-bottomed, poly-D-lysine coated plates (BD Biosciences, Bedford, Mass.) at a density of 1×10^5 cells per well 24 hours before the assay. On the assay day, BTC-AM dye (Invitrogen, Carlsbad, Calif.) was loaded into the cells by replacing the cell culture medium with 55 μL/well of 3 μg/mL dye in DPBS. Dye loading was allowed to proceed for 2 hours at room temperature and then cells were washed twice with 50 μL/well of assay buffer (in mM: 10 HEPES pH 7.3, 5 glucose, 140 Na-gluconate, 2.5 K-gluconate, 3.6 Ca-gluconate, 2 MgSO4, 0.1 Ouabain) to remove unloaded dye. Cells were incubated in 50 μL of assay buffer before loading onto a FLIPR system (Molecular Devices, Sunnyvale, Calif.). Various concentrations of compounds to be assayed were added to the cells in 50 μL of assay buffer and incubated for 4 minutes. The fluorescence signal was initiated by adding 100 μL of assay buffer containing 6 mM TlNO3 and 10 mM K2SO4. Fluors were excited using the 488-nm line of an argon laser and emission was filtered using a 540±30 nm bandpass filter. Fluorescent signals were recorded for 3 minutes. Sums of the responses over basal responses were plotted versus concentrations of test compounds to obtain an EC50 value. The maximum response for each test compound was determined relative to the response produced by 10 μM retigabine. The maximum response of retigabine at 10 μM was set at 100%.
# [1] = maximum response relative to the response produced by 10 μM retigabine (set at 100%)
Compound,Emax [1] [%],EC50 [nM],Max. % [1] [%]
"O=C(CC1CC2CCC1C2)Nn1nc(C(F)(F)F)c2ccccc2c1=O (racemic) [Example 58, (±)-2-(exo-bicyclo[2.2.1]heptan-2-yl)-N-[1-oxo-4-(trifluoromethyl)phthalazin-2(1H)-yl]acetamide]",137,100 to 500,
"CC(C)(C)c1nn(NC(=O)CC2CC3CCC2C3)c(=O)c2ccccc12 (racemic) [Example 63, (±)-2-(exo-bicyclo[2.2.1]heptan-2-yl)-N-(4-tert-butyl-1-oxophthalazin-2(1H)-yl)acetamide]",160,< 100,
"O=C(C[C@H]1C[C@@H]2CC[C@H]1C2)Nn1nc(C2CCC2)c2ccccc2c1=O (racemic) [Example 68, (±)-2-(exo-bicyclo[2.2.1]heptan-2-yl)-N-(4-cyclobutyl-1-oxophthalazin-2(1H)-yl)acetamide]",164,< 100,
"O=C(CC1CC2CCC1C2)Nn1nc(C2CCCC2)c2ccccc2c1=O (racemic) [Example 71, (±)-2-(exo-bicyclo[2.2.1]heptan-2-yl)-N-(4-cyclopentyl-1-oxophthalazin-2(1H)-yl)acetamide]",162,< 100,
"O=C(CC1CC2CCC1C2)Nn1nc(C2CCCCC2)c2ccccc2c1=O (racemic) [Example 74, (±)-2-(exo-bicyclo[2.2.1]heptan-2-yl)-N-(4-cyclohexyl-1-oxophthalazin-2(1H)-yl)acetamide]",165,< 100,
"O=C(CC1CC2CCC1C2)Nn1nc(CCc2ccccc2)c2ccccc2c1=O (racemic) [Example 167, (±)-2-(exo-bicyclo[2.2.1]hept-2-yl)-N-[1-oxo-4-(2-phenylethyl)phthalazin-2(1H)-yl]acetamide]",144,< 100,
"O=C(C[C@H]1C[C@@H]2CC[C@H]1C2)Nn1nc(C2(c3ccccc3)CC2)c2ccccc2c1=O (racemic) [Example 172, (±)-2-(exo-bicyclo[2.2.1]hept-2-yl)-N-[1-oxo-4-(1-phenylcyclopropyl)phthalazin-2(1H)-yl]acetamide]",195,< 100,
"O=C(Nn1nc(-c2ccc(Cl)cc2)c2ccccc2c1=O)[C@@H]1C[C@H]1c1ccccc1 (relative stereo) [Example 120, trans-N-[4-(4-chlorophenyl)-1-oxophthalazin-2(1H)-yl]-2-phenylcyclopropanecarboxamide]",103,500 to 1000,
"CC(C)c1nn(NC(=O)Cc2ccc(Cl)cc2)c(=O)c2ccccc12 [Example 1, 2-(4-chlorophenyl)-N-(4-isopropyl-1-oxophthalazin-2(1H)-yl)acetamide]",125,100 to 500,
"O=C(CC12CC3CC(CC(C3)C1)C2)Nn1nc(-c2ccc(Br)cc2)c2ccccc2c1=O [Example 2, 2-(1-adamantyl)-N-[4-(4-bromophenyl)-1-oxophthalazin-2(1H)-yl]acetamide]",193,100 to 500,
"O=C(Cc1ccc(Cl)cc1)Nn1nc(-c2ccccc2)c2ccccc2c1=O [Example 4, 2-(4-chlorophenyl)-N-(1-oxo-4-phenylphthalazin-2(1H)-yl)acetamide]",157,100 to 500,
"CC(C)c1nn(NC(=O)Cc2cc(F)cc(F)c2)c(=O)c2ccccc12 [Example 5, 2-(3,5-difluorophenyl)-N-(4-isopropyl-1-oxophthalazin-2(1H)-yl)acetamide]",136,100 to 500,
"CC(C)c1nn(NC(=O)CC23CC4CC(CC(C4)C2)C3)c(=O)c2ccccc12 [Example 6, 2-(1-adamantyl)-N-(4-isopropyl-1-oxophthalazin-2(1H)-yl)acetamide]",200,< 100,
"O=C(CC12CC3CC(CC(C3)C1)C2)Nn1nc(-c2ccccc2)c2cccnc2c1=O [Example 7, 2-(1-adamantyl)-N-(8-oxo-5-phenylpyrido[2,3-d]pyridazin-7(8H)-yl)acetamide]",136,1000 to 10000,

# Further lines, results first:
Emax [1] [%],EC50 [nM],Max. % [1] [%],Compound
140,1000 to 10000,,"O=C(CC1CC2CCC1C2)Nn1nc(-c2ccc(C(=O)O)cc2)c2ccccc2c1=O (racemic) [Example 78, (±)-4-(3-{[(exo-bicyclo[2.2.1]heptan-2-yl)acetyl]amino}-4-oxo-3,4-dihydrophthalazin-1-yl)benzoic acid]"
144,< 100,,"COC(=O)c1ccc(-c2nn(NC(=O)C[C@H]3C[C@@H]4CC[C@H]3C4)c(=O)c3ccccc23)cc1 (racemic) [Example 79, (±)-methyl 4-(3-{[exo-bicyclo[2.2.1]hept-2-ylacetyl]amino}-4-oxo-3,4-dihydrophthalazin-1-yl)benzoate]"
50,> 10000,,"CN(C)C(=O)c1ccc(-c2nn(NC(=O)CC3CC4CCC3C4)c(=O)c3ccccc23)cc1 (racemic) [Example 81, (±)-4-(3-{[exo-bicyclo[2.2.1]hept-2-ylacetyl]amino}-4-oxo-3,4-dihydrophthalazin-1-yl)-N,N-dimethylbenzamide]"
134,< 100,,"O=C(C[C@H]1C[C@@H]2CC[C@H]1C2)Nn1nc(-c2ccc(Br)cc2)c2ccccc2c1=O (racemic) [Example 84, (±)-2-(exo-bicyclo[2.2.1]heptan-2-yl)-N-[4-(4-bromophenyl)-1-oxophthalazin-2(1H)-yl]acetamide]"
154,< 100,,"O=C(CC1CC2CCC1C2)Nn1nc(-c2ccc(Cl)cc2)c2ccccc2c1=O (racemic) [Example 113, (±)-2-(exo-bicyclo[2.2.1]hept-2-yl)-N-[4-(4-chlorophenyl)-1-oxophthalazin-2(1H)-yl]acetamide]"
150,< 100,,"O=C(CC1CC2CCC1C2)Nn1nc(-c2cccc(Cl)c2)c2ccccc2c1=O (racemic) [Example 125, (±)-2-(exo-bicyclo[2.2.1]hept-2-yl)-N-[4-(3-chlorophenyl)-1-oxophthalazin-2(1H)-yl]acetamide]"
150,< 100,,"O=C(CC1CC2CCC1C2)Nn1nc(-c2ccc(F)cc2)c2ccccc2c1=O (racemic) [Example 131, (±)-2-(exo-bicyclo[2.2.1]hept-2-yl)-N-[4-(4-fluorophenyl)-1-oxophthalazin-2(1H)-yl]acetamide]"
192,< 100,,"O=C(C[C@H]1C[C@@H]2CC[C@H]1C2)Nn1nc(-c2ccc(F)cc2F)c2ccccc2c1=O (racemic) [Example 134, (±)-2-(exo-bicyclo[2.2.1]hept-2-yl)-N-[4-(2,4-difluorophenyl)-1-oxophthalazin-2(1H)-yl]acetamide]"
130,< 100,,"O=C(C[C@H]1C[C@@H]2CC[C@H]1C2)Nn1nc(Cc2ccccc2)c2ccccc2c1=O (racemic) [Example 141, (±)-N-(4-benzyl-1-oxophthalazin-2(1H)-yl)-2-(exo-bicyclo[2.2.1]hept-2-yl)acetamide]"
139,< 100,,"O=C(CC1CC2CCC1C2)Nn1nc(Cc2ccc(Cl)cc2)c2ccccc2c1=O (racemic) [Example 144, (±)-2-(exo-bicyclo[2.2.1]hept-2-yl)-N-[4-(4-chlorobenzyl)-1-oxophthalazin-2(1H)-yl]acetamide]"
141,< 100,,"COc1ccc(-c2nn(NC(=O)CC3CC4CCC3C4)c(=O)c3ccccc23)cc1 (racemic) [Example 151, (±)-2-(exo-bicyclo[2.2.1]hept-2-yl)-N-[4-(4-methoxyphenyl)-1-oxophthalazin-2(1H)-yl]acetamide]"
,< 100,165,"Cc1ccc(C)c(-c2nn(NC(=O)CC3CC4CCC3C4)c(=O)c3ccccc23)c1 (racemic) [Example 155, (±)-2-(exo-bicyclo[2.2.1]hept-2-yl)-N-[4-(2,5-dimethylphenyl)-1-oxophthalazin-2(1H)-yl]acetamide]"
157,< 100,,"Cc1ccc(-c2nn(NC(=O)CC3CC4CCC3C4)c(=O)c3ccccc23)c(C)c1 (racemic) [Example 160, (±)-2-(exo-bicyclo[2.2.1]hept-2-yl)-N-[4-(2,4-dimethylphenyl)-1-oxophthalazin-2(1H)-yl]acetamide]"
177,< 100,,"Cc1ccc(-c2nn(NC(=O)CC3CC4CCC3C4)c(=O)c3ccccc23)cc1C (racemic) [Example 163, (±)-2-(exo-bicyclo[2.2.1]hept-2-yl)-N-[4-(3,4-dimethylphenyl)-1-oxophthalazin-2(1H)-yl]acetamide]"
134,100 to 500,,"CC(C)c1ccc(-c2nn(NC(=O)C[C@H]3C[C@@H]4CC[C@H]3C4)c(=O)c3ccccc23)cc1 (racemic) [Example 168, (±)-2-(exo-bicyclo[2.2.1]hept-2-yl)-N-[4-(4-isopropylphenyl)-1-oxophthalazin-2(1H)-yl]acetamide]"
154,< 100,,"O=C(CC1CC2CCC1C2)Nn1nc(-c2ccc(Cl)cc2)c2c(F)ccc(F)c2c1=O (racemic) [Example 184, (±)-2-(exo-bicyclo[2.2.1]hept-2-yl)-N-[4-(4-chlorophenyl)-5,8-difluoro-1-oxophthalazin-2(1H)-yl]acetamide]"
